US20230390268A1 (priority 2022, published 2023)
Entries after “also recorded” stand apart in the source; their conditions may differ. Like-named read-outs stand apart in the source and are kept apart here.

How the values were obtained:
[1] = system: SARS-CoV-2; type: cell-based
[2] = system: IL6; test: IL6 transcript levels by qPCR in SARS-CoV-2 infected Calu3 cells; type: cell-based, human; conditions: Calu3 cells infected with SARS-CoV-2
[3] = system: TNFα; test: TNFα transcript levels by qPCR in SARS-CoV-2 infected Calu3 cells; type: cell-based, human; conditions: Calu3 cells infected with SARS-CoV-2
[4] = system: IL8; test: IL8 transcript levels by qPCR in SARS-CoV-2 infected Calu3 cells; type: cell-based, human; conditions: Calu3 cells infected with SARS-CoV-2
[5] = system: Vesicular stomatitis virus (VSV); type: cell-based
[6] = system: Herpes Simplex Virus (HSV); type: cell-based
[7] = system: Vaccinia virus (VacV); type: cell-based
[8] = system: HIV-1 NL4-3 GFP; type: cell-based
[9] = system: ASK1/p38MAPK; type: cell-based, human
[10] = system: Calu3 cells; type: cell-based, human; conditions: 1 MOI of VSV, Selonsertib 50 μM, 24 hr
[11] = system: JNK; type: cell-based, human
[12] = system: mTORC1; type: cell-based, human; conditions: Calu3 and THF cells infected with VSV, Selonsertib 50 μM, 24 hr, versus DMSO+VSV
[13] = system: autophagy; type: cell-based, human; conditions: Calu3 and THF cells infected with VSV, Selonsertib 50 μM, 24 hr
[14] = system: SARS-CoV-2; type: cell-based; remark: listed apart in the source
[15] = system: VSV; type: cell-based
[16] = system: SARS-CoV-2; type: cell-based; remark: listed apart in the source
[17] = system: SARS-CoV-2/SB3; parameters: species or system Syrian Hamster; conditions: in vivo
[18] = system: VSV; type: cell-based; remark: listed apart in the source
[19] = system: HSV; test: HSV-GFP replication in CHL-11 hamster cell line; type: cell-based; conditions: CHL-11 cells, HSV-GFP MOI of 1, 0.1 or 0.01, Selonsertib 25 or 50 μM, 24 h
[20] = system: THF cells; test: Cell viability MTT assay; conditions: 50 μM, 24 hr, compared with DMSO

Structure (SMILES)	SARS-CoV-2 replication [1]	levels of IL6 [2]	levels of TNFα [3]	levels of IL8 [4]	GFP-intensity of VSV [5]	VSV replication [5]	duration of effect on viral replication after aspirating drugs [5] [h]	GFP-intensity of HSV [6]	GFP-intensity of VacV [7]	HIV-1-GFP replication [8]	cell viability [20]	further results
Cc1cc(F)c(C(=O)Nc2cccc(-c3nncn3C(C)C)n2)cc1-n1cnc(C2CC2)c1 [Selonsertib]	drastically reduces	diminish	diminish	diminish	significantly abolish	gradually decreased	24	significantly abolish	significantly abolish	abrogates replication	healthy and safe; also recorded: no difference	time after adding drug at which VSV replication starts to weaken [5]: 2 h; duration of effect on phosphorylation of ASK1/p38MAPK after aspirating drugs [9]: 24 h; time after adding drug at which p38MAPK phosphorylation starts to weaken [9]: 2 h; changes in cell morphology caused by VSV replication [10]: remarkably alleviates; also recorded: relieved; JNK phosphorylation [11]: reduced; Phosphorylation levels of p70 (S6K1) [12]: not changed; autophagy marker, LC3II [13]: not affected; SARS-CoV-2 nucleoprotein in infected HAP1 KO cells treated or not [14]: no significant difference; VSV infection in HAP1 KO cells [15]: still able to swipe the leftover of VSV infection; level of SARS-CoV2 nucleocapsid [16]: remarkably increased; percentage of weight loss ([17]; hamster): the most; IHC staining against SARS-CoV2 nucleocapsid in the hamster lung tissue [17]: dominated a spatial area of the lung tissue; SARS-CoV-2 replication in hamster tissue [17]: augmented; antiviral effect against VSV in hamster cell line [18]: antiviral properties; antiviral effect against HSV in hamster cell line [19]: antiviral properties
Cc1ccc(-n2nc(C(C)(C)C)cc2NC(=O)Nc2ccc(OCCN3CCOCC3)c3ccccc23)cc1 [BIRB, Doramapimod]	no antiviral properties	diminish	diminish	diminish		no obvious effect; also recorded: no noticeable effect						
O=C(Nc1cccc(-c2nncn2C2CC2)c1)c1cc(-n2cnc(C3CC3)c2)ccn1 [GS-444217]	drastically reduces	diminish	diminish	diminish	significantly abolish		24	significantly abolish	significantly abolish	abrogates replication	healthy and safe; also recorded: no difference	duration of effect on phosphorylation of ASK1/p38MAPK after aspirating drugs ([9]; pretreatment 24 hours, drugs aspirated prior VSV infection, Calu3 cells): 24 h
